# US8313751B2, “Compositions and methods for the prophylaxis or treatment of viral diseases” (priority 2003, dated 2012)
# Entries after “also recorded” stand apart in the source; their conditions may differ. Like-named read-outs stand apart in the source and are kept apart here.
# Tests used:
# [1] = test system: influenza A virus strain fowl plague virus (FPV); format: cell-based
# [2] = test system: influenza A virus strain fowl plague virus (FPV); format: cell-based; remark: listed apart in the source
# [3] = test system: influenza virus (fowl plague virus, FPV); parameters: species or system C57 Bl/6 mice; conditions: mouse, in vivo
# [4] = test system: influenza virus (fowl plague virus, FPV); conditions: mouse, in vivo, ip
# influenza virus = conditions: cited from earlier work
SMILES,antiviral effectivity in vitro [1],inhibition of the virus multiplication [1],inhibiting effect on virus multiplication [2],reduction of the virus titers by a factor [2],animals that survived the infection [3],antiviral effect compared with lower concentrations [3],average survival time of the dead animals versus control group [3],influenza virus multiplication in the lung and in the total organism [3],viruses in the lung [3],animals that survived the infection [4],average survival time of the dead animals versus control group [4],body weight [4],concentration from which inhibition of influenza virus infections in cell culture was observed (influenza virus),concentration from which inhibition of influenza virus infections in cell culture was observed (influenza virus; conversion of the mM values),reduction of the virus titers [1]
"CC(=O)Oc1ccccc1C(=O)O [ASA, acetylsalicylic acid]",have not shown in vitro any antiviral effectivity,2 log steps,> 2 log steps,10,approx. 40%,comparatively not stronger; also recorded: clearly less antivirally effective,clearly longer,distinct inhibition,Smaller doses of ASA more clearly reduced the viruses in the lung than higher doses,approx. 20%,clearly longer,distinct reduction in body weight,5 to 10 mM,0.9 to 1.8 mg/mL,
"S=C(S)N1CCCC1 [PDTC, pyrrolidine dithiocarbamate]",,,,,,,,,,,,,,,approx. 10 fold
